Literature values as cited in publication PMC5742115, “Pharmacophore Modeling and in Silico/in Vitro Screening for Human Cytochrome P450 11B1 and Cytochrome P450 11B2 Inhibitors” (Frontiers in Chemistry, 2017).

Tested on: CYP11B2
Details: reported activity, supplementary Table 1; ref Lucas et al., 2011; read-out: CYP11B2 IC50; cited from earlier work
For `COc1ccccc1-c1cncc(-c2cc3c4c(c2)CCN4C(=O)CC3)c1` [CHEMBL1765226], the IC50 is given as 2.4 nM. For `O=C1CCc2cc(-c3cncc(-c4cccc(F)c4)c3)cc3c2N1CC3` [CHEMBL1765221], the IC50 is listed as 1.4 nM. In the case of `O=C1CCc2cc(-c3cccnc3)cc3c2N1CCC3` [CHEMBL1765206], the IC50 is given as 2.4 nM.

Same assay, conditions: reported activity, supplementary Table 1; ref Meredith et al., 2013; read-out: CYP11B2 IC50; cited from earlier work
In the case of `N#Cc1ccc([C@H]2CCc3cncn32)c(F)c1` [CHEMBL3099695], the IC50 is listed as […].

Same assay, conditions: reported activity, supplementary Table 1; ref Pinto-Bazurco Mendieta et al., 2013; read-out: CYP11B2 IC50; cited from earlier work
In the case of `COc1ccc2ccc(-c3cncc(O)c3)c(Cl)c2c1` [CHEMBL2420683], the IC50 is given as 13 nM. For `Oc1ccc2ccc(-c3cccnc3)c(Cl)c2c1` [CHEMBL2420674], the IC50 is given as 26 nM. For `COc1ccc2ccc(-c3cncc4ccccc34)c(Cl)c2c1` [CHEMBL2420687], the IC50 is given as 54 nM. For `COc1ccc2ccc(-c3cncnc3)c(Cl)c2c1` [CHEMBL2420685], the IC50 is listed as 72 nM.

Same assay, conditions: reported activity, supplementary Table 1; ref Roumen et al., 2010; read-out: CYP11B2 IC50; cited from earlier work
For `COc1ccc(Cn2cncc2-c2ccccc2)cc1` [CHEMBL591697], the IC50 is given as 14 nM. In the case of `N#Cc1ccc(Cn2cncc2-c2ccccc2)cc1` [CHEMBL597578], the IC50 is listed as 1.7 nM. For `OCCCc1cncn1Cc1ccc(Cl)cc1` [CHEMBL598606], the IC50 is listed as 55 nM. In the case of `N#Cc1ccc(Cn2cncc2-c2ccccc2F)cc1` [CHEMBL599603], the IC50 is given as 2.3 nM. For `Brc1ccc(Cn2cncc2-c2ccccc2)cc1` [CHEMBL597173], the IC50 is given as 5.1 nM.

Same assay, conditions: reported activity, supplementary Table 1; ref Ulmschneider et al., 2005a; read-out: CYP11B2 IC50; cited from earlier work
For `Clc1cccc2c1CC/C2=C/c1cccnc1` [CHEMBL369623], the IC50 is listed as 31 nM. For `Fc1ccc2c(c1)CC/C2=C/c1cccnc1` [CHEMBL383806], the IC50 is listed as 11 nM. For `C(=C1\CCc2ccccc21)/c1ccncc1` [CHEMBL179149], the IC50 is listed as 18 nM. For `Fc1ccc2c(c1)CC/C2=C\c1ccncc1` [CHEMBL424960], the IC50 is given as 15 nM. For `COc1cccc2c1/C(=C/c1cccnc1)CC2` [CHEMBL175791], the IC50 is given as 27 nM. For `Brc1ccc2c(c1)CC/C2=C\c1cnc[nH]1` [CHEMBL177293], the IC50 is given as 37 nM.

Same assay, conditions: reported activity, supplementary Table 1; ref Ulmschneider et al., 2005b; read-out: CYP11B2 IC50; cited from earlier work
For `C(=C1\CCCc2ccccc21)/c1c[nH]cn1` [CHEMBL367719], the IC50 is given as 9.6 nM. For `C(=C1\CCc2ccccc21)/c1c[nH]cn1` [CHEMBL178036], the IC50 is given as 11 nM. For `Brc1ccc2c(c1)CC/C2=C\c1cnc[nH]1` [CHEMBL177293], the IC50 is given as 92.8 nM. In the case of `Fc1ccc2c(c1)CC/C2=C/c1cccc2cnccc12` [CHEMBL363849], the IC50 is given as 65 nM. For `Fc1ccc2c(c1)CC/C2=C\c1cccc2cnccc12` [CHEMBL370530], the IC50 is listed as 57 nM.

Same assay, conditions: reported activity, supplementary Table 1; ref Yin et al., 2012; read-out: CYP11B2 IC50; cited from earlier work
In the case of `CC(C)C(c1cc2c3c(c1)CCN3C(=O)CC2)n1ccnc1` (centres unmarked) [CHEMBL2163638], the IC50 is listed as 1.4 nM. For `O=C1CCc2cc(C(c3ccco3)n3ccnc3)cc3c2N1CC3` (centres unmarked) [CHEMBL2163650], the IC50 is given as 47 nM.

Same assay, conditions: reported activity, supplementary Table 1; ref Yin et al., 2013; read-out: CYP11B2 IC50; cited from earlier work
In the case of `O=C1CCc2cc(C(c3ccncc3)c3ccc(F)cc3)cc3c2N1CC3` (centres unmarked) [CHEMBL2312959], the IC50 is given as 56 nM. For `CC(c1ccncc1)c1cc2c3c(c1)CCN3C(=O)CC2` (centres unmarked) [CHEMBL2312950], the IC50 is listed as 74 nM. For `O=C1CCc2cc(C(c3ccncc3)c3ccc(Cl)cc3)cc3c2N1CC3` (centres unmarked) [CHEMBL2312961], the IC50 is listed as 32 nM. For `COc1ccc(C(c2ccncc2)c2cc3c4c(c2)CCN4C(=O)CC3)cc1` (centres unmarked) [CHEMBL2312957], the IC50 is given as 46 nM.

Tested on: CYP11B1
Details: reported activity, supplementary Table 1; ref Lucas et al., 2011; read-out: CYP11B1 IC50; cited from earlier work
In the case of `COc1ccccc1-c1cncc(-c2cc3c4c(c2)CCN4C(=O)CC3)c1` [CHEMBL1765226], the IC50 is given as 128 nM. In the case of `O=C1CCc2cc(-c3cncc(-c4cccc(F)c4)c3)cc3c2N1CC3` [CHEMBL1765221], the IC50 is given as 490 nM. In the case of `O=C1CCc2cc(-c3cccnc3)cc3c2N1CCC3` [CHEMBL1765206], the IC50 is given as 2300 nM.

Same assay, conditions: reported activity, supplementary Table 1; ref Meredith et al., 2013; read-out: CYP11B1 IC50; cited from earlier work
In the case of `N#Cc1ccc([C@H]2CCc3cncn32)c(F)c1` [CHEMBL3099695], the IC50 is given as […].

Same assay, conditions: reported activity, supplementary Table 1; ref Pinto-Bazurco Mendieta et al., 2013; read-out: CYP11B1 IC50; cited from earlier work
In the case of `COc1ccc2ccc(-c3cncc(O)c3)c(Cl)c2c1` [CHEMBL2420683], the IC50 is given as 7100 nM. For `Oc1ccc2ccc(-c3cccnc3)c(Cl)c2c1` [CHEMBL2420674], the IC50 is listed as 235 nM. In the case of `COc1ccc2ccc(-c3cncc4ccccc34)c(Cl)c2c1` [CHEMBL2420687], the IC50 is given as 362 nM. For `COc1ccc2ccc(-c3cncnc3)c(Cl)c2c1` [CHEMBL2420685], the IC50 is listed as 12300 nM.

Same assay, conditions: reported activity, supplementary Table 1; ref Roumen et al., 2010; read-out: CYP11B1 IC50; cited from earlier work
In the case of `COc1ccc(Cn2cncc2-c2ccccc2)cc1` [CHEMBL591697], the IC50 is listed as 11 nM. In the case of `N#Cc1ccc(Cn2cncc2-c2ccccc2)cc1` [CHEMBL597578], the IC50 is given as 28 nM. For `OCCCc1cncn1Cc1ccc(Cl)cc1` [CHEMBL598606], the IC50 is given as 44 nM. For `N#Cc1ccc(Cn2cncc2-c2ccccc2F)cc1` [CHEMBL599603], the IC50 is given as 20 nM. For `Brc1ccc(Cn2cncc2-c2ccccc2)cc1` [CHEMBL597173], the IC50 is given as 7 nM.

Same assay, conditions: reported activity, supplementary Table 1; ref Ulmschneider et al., 2005a; read-out: CYP11B1 IC50; cited from earlier work
For `Clc1cccc2c1CC/C2=C/c1cccnc1` [CHEMBL369623], the IC50 is listed as 657 nM. For `Fc1ccc2c(c1)CC/C2=C/c1cccnc1` [CHEMBL383806], the IC50 is listed as 125 nM. In the case of `C(=C1\CCc2ccccc21)/c1ccncc1` [CHEMBL179149], the IC50 is given as 931 nM. For `Fc1ccc2c(c1)CC/C2=C\c1ccncc1` [CHEMBL424960], the IC50 is listed as 1100 nM. In the case of `COc1cccc2c1/C(=C/c1cccnc1)CC2` [CHEMBL175791], the IC50 is listed as 955 nM. For `Brc1ccc2c(c1)CC/C2=C\c1cnc[nH]1` [CHEMBL177293], the IC50 is listed as 1940 nM.

Same assay, conditions: reported activity, supplementary Table 1; ref Ulmschneider et al., 2005b; read-out: CYP11B1 IC50; cited from earlier work
For `C(=C1\CCCc2ccccc21)/c1c[nH]cn1` [CHEMBL367719], the IC50 is listed as 3.3 nM. For `C(=C1\CCc2ccccc21)/c1c[nH]cn1` [CHEMBL178036], the IC50 is listed as 6.1 nM. For `Fc1ccc2c(c1)CC/C2=C/c1cccc2cnccc12` [CHEMBL363849], the IC50 is given as 26 nM. For `Fc1ccc2c(c1)CC/C2=C\c1cccc2cnccc12` [CHEMBL370530], the IC50 is listed as 58 nM.

Same assay, conditions: reported activity, supplementary Table 1; ref Yin et al., 2012; read-out: CYP11B1 IC50; cited from earlier work
In the case of `CC(C)C(c1cc2c3c(c1)CCN3C(=O)CC2)n1ccnc1` (centres unmarked) [CHEMBL2163638], the IC50 is given as 3.8 nM. For `O=C1CCc2cc(C(c3ccco3)n3ccnc3)cc3c2N1CC3` (centres unmarked) [CHEMBL2163650], the IC50 is given as 20 nM.

Same assay, conditions: reported activity, supplementary Table 1; ref Yin et al., 2013; read-out: CYP11B1 IC50; cited from earlier work
In the case of `O=C1CCc2cc(C(c3ccncc3)c3ccc(F)cc3)cc3c2N1CC3` (centres unmarked) [CHEMBL2312959], the IC50 is listed as 88 nM. For `CC(c1ccncc1)c1cc2c3c(c1)CCN3C(=O)CC2` (centres unmarked) [CHEMBL2312950], the IC50 is listed as 140 nM. In the case of `O=C1CCc2cc(C(c3ccncc3)c3ccc(Cl)cc3)cc3c2N1CC3` (centres unmarked) [CHEMBL2312961], the IC50 is given as 92 nM. In the case of `COc1ccc(C(c2ccncc2)c2cc3c4c(c2)CCN4C(=O)CC3)cc1` (centres unmarked) [CHEMBL2312957], the IC50 is listed as 1690 nM.
